For one assay, the system named is HCV replicon 1A. Nature of the assay: Cell-based HCV Replicon Assay A, replicon 1A. In a few lines: (§1)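 Replicon cells seeded at 2000 cells/well with compound, 10 serial dilutions starting at 333.3 nM to 1.667 nM, 0.5% DMSO, 5% FBS, harvested on day 3. Replicon RNA measured by multiplex TaqMan RT-PCR with cyclophilin as endogenous control, quantified from standard curves of Ct vs log ng RNA.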
In general terms: In antiviral work, replicon cells carry a viral genome segment that copies itself.

A further assay has as its system HCV replicon 1AQ30D. The experiment in a line: Cell-based HCV Replicon Assay B, replicon 1AQ30D. Here is the method: (§2) In an alternate assay (“Replicon Assay B”), 1000 cells were seeded per well in a 384-well collagen coated black plate from Greiner bio-one (Cat #781946) in 5% FBS. Inhibitors of this invention were added at 24 h post-seeding, and the plates were incubated for 3 days. Cells were subsequently lysed with Qiagen lysis buffer (Cat #1062731) to extract the RNA. HCV replicon RNA level was measured by real-time PCR using the RNA-to-CT kit from Applied Biosystem (Cat #4392656) and genotype-specific primers and probes. The amplicon was located within NS5B. The sequence of the PCR primers are as follows: 5B.2F, ATGGACAGGCGCCCTGA (SEQ. ID NO. 1); 5B.2R, […] (SEQ. ID NO. 2); the probe sequence was FAM-labeled CACGCCATGCGCTGCGG (SEQ. ID NO. 3). To detect genotype 1A the primer 1A F, TGCGGAACCGGTGAGTACA and 1A R, […] were used; the probe sequence was FAM-[…].
(§3) The real-time RT-PCR reactions were run on ABI PRISM 7900HT or Viia7 Sequence Detection System using the following program: 48° C. for 30 minutes, 95° C. for 10 minutes, 40 cycles of 95° C. for 15 sec, 60° C. for 1 minutes. The 50% effective concentration (EC50) was the drug concentration necessary to achieve an increase in the cycle threshold (CT) of 1 over the projected baseline CT.
(§4) Data was obtained for various compounds of the present invention using the methods described in the Example above, and is presented in the table immediately below. Data for replicons 1A, 1AY93H and 2B were obtained using Replicon Assay A and data for replicons 1AQ30D and 1B were obtained using Replicon Assay B.

The next assay concerns HCV replicon 2B. Nature of the assay: Cell-based HCV Replicon Assay A, replicon 2B. The procedure, abridged: as §1
For a further assay, the system named is HCV replicon 1B. The experiment in a line: Cell-based HCV Replicon Assay B, replicon 1B. The protocol: as §2, §3, §4
The test system of the next assay is HCV replicon 1AY93H. Nature of the assay: Cell-based HCV Replicon Assay A, replicon 1AY93H. In a few lines:
as §1

[1] abbreviates: read-out: 1A Q30D IC50, replicon 1AQ30D.
Where [2] appears, read: Hepatitis C virus, read-out: 2B IC50 (nM), replicon 2B.
Setting [3] is: read-out: 1A Y93H IC50, replicon 1AY93H.
Where [4] appears, read: Hepatitis C virus, read-out: 1A Y93H IC50 (nM), replicon 1AY93H.

These results are taken from patent US9555038B2, “Heterocycle-substituted tetracyclic compounds and methods of use thereof for the treatment of viral diseases” (Merck Sharp & Dohme Corp., priority 2013, dated 2017).

One may read the IC50 as the concentration needed to halve the response being measured.

Molecules are shown by their SMILES. Where two headings read alike, the source gives them in different places.

Consider `COC(=O)N[C@H](C(=O)N1CCC[C@H]1c1ncc(-c2cc(F)c3c(c2)OC(c2nc4c(s2)CCCC4)n2c-3cc3cc(-c4cnc([C@@H]5CCCN5C(=O)[C@@H](NC(=O)OC)C(C)C)[nH]4)ccc32)[nH]1)C(C)C` (single isomer, unassigned) [Compound 88], for which the figures for the IC50 in the assay with HCV replicon 1A and in the assay with HCV replicon 1AQ30D (setting [1]) were 0.0028 nM and 0.415 nM, respectively.

Turning to `COC(=O)N[C@H](C(=O)N1CCC[C@H]1c1ncc(-c2cc(F)c3c(c2)OC(c2cnc(-c4cccnc4)s2)n2c-3cc3cc(-c4cnc([C@@H]5CCCN5C(=O)[C@@H](NC(=O)OC)C(C)C)[nH]4)ccc32)[nH]1)C(C)C` (mixture of isomers) [Compound 422], the half-inhibitory concentration (IC50) worked out at 0.021 nM with HCV replicon 1A (Hepatitis C virus); 35.2 nM with HCV replicon 2B (setting [2]); 0.015 nM with HCV replicon 1B (Hepatitis C virus); 1.67 nM with HCV replicon 1AQ30D (Hepatitis C virus, read-out: 1A Q30D IC50 (nM), replicon 1AQ30D).

Take `COC(=O)N[C@H](C(=O)N1CCC[C@H]1c1ncc(-c2cc(F)c3c(c2)OC(c2cnc(C4CCOCC4)s2)n2c-3cc3cc(-c4cnc([C@@H]5CCCN5C(=O)[C@@H](NC(=O)OC)C(C)C)[nH]4)ccc32)[nH]1)C(C)C` (single isomer, unassigned) [Compound 532]: the concentration for half-maximal inhibition (IC50) is 1.76 nM with HCV replicon 1AY93H (setting [3]); 0.0013 nM with HCV replicon 1A; 1.18 nM in the assay with HCV replicon 2B (read-out: 2B IC50, replicon 2B); 0.0036 nM in the assay with HCV replicon 1B.

As for `COC(=O)NC(C(=O)N1CCC[C@H]1c1ncc(-c2ccc3c(c2)cc2n3C(c3cnc(C(C)(C)C)s3)Oc3cc(-c4cnc([C@@H]5CCCN5C(=O)[C@@H](NC(=O)OC)C(C)C)[nH]4)cc(F)c3-2)[nH]1)C1CCOC(C)(C)C1` (single isomer, unassigned) [Compound 316], the IC50 in the assay with HCV replicon 1AY93H (setting [3]) was found to be 0.0162 nM; in the assay on HCV replicon 1A it was 0.0011 nM; in the assay with HCV replicon 2B (read-out: 2B IC50, replicon 2B), 0.012 nM; in the assay on HCV replicon 1B it was 0.004 nM.

For the compound `COC(=O)NC(C(=O)N1CCC[C@H]1c1ncc(-c2ccc3c(c2)cc2n3C(c3sc(C(C)C)nc3C)Oc3cc(-c4cnc([C@@H]5CCCN5C(=O)[C@@H](NC(=O)OC)C(C)C)[nH]4)cc(F)c3-2)[nH]1)C1CCOC(C)(C)C1` (single isomer, unassigned) [Compound 435], the half-inhibitory concentration (IC50) was 0.618 nM with HCV replicon 1AY93H (setting [3]); 0.0028 nM in the assay on HCV replicon 1A; 0.181 nM with HCV replicon 2B (read-out: 2B IC50, replicon 2B); 0.0038 nM with HCV replicon 1B.

Take `COC(=O)NC(C(=O)N1CCC[C@H]1c1ncc(-c2ccc3c(c2)cc2n3C(c3cnc(C4(C)CC4)s3)Oc3cc(-c4cnc([C@@H]5CCCN5C(=O)[C@@H](NC(=O)OC)C(C)C)[nH]4)cc(F)c3-2)[nH]1)C1C[C@@H](C)O[C@@H](C)C1` (single isomer, unassigned) [Compound 461]: the half-maximal inhibitory concentration (IC50) is 0.32 nM in the assay with HCV replicon 1AY93H (setting [3]); 0.0022 nM in the assay with HCV replicon 1A (Hepatitis C virus); 0.132 nM in the assay on HCV replicon 2B (read-out: 2B IC50, replicon 2B); 0.0038 nM in the assay with HCV replicon 1B (Hepatitis C virus).

Regarding `COC(=O)N[C@H](C(=O)N1CCC[C@H]1c1ncc(-c2cc(F)c3c(c2)OC(c2cnc(C4CC4)s2)n2c-3c(C)c3cc(-c4cnc([C@@H]5CCCN5C(=O)[C@@H](NC(=O)OC)C(C)C)[nH]4)ccc32)[nH]1)C(C)C` (single isomer, unassigned) [Compound 495], the concentration for half-maximal inhibition (IC50) turned out to be 0.27 nM in the assay on HCV replicon 1AY93H (replicon 1AY93H, read-out: 1A Y93H IC50); 0.0016 nM with HCV replicon 1A; 0.184 nM in the assay on HCV replicon 2B (replicon 2B, read-out: 2B IC50); 0.0025 nM with HCV replicon 1B.

For `COC(=O)NC(C(=O)N1CCC[C@H]1c1ncc(-c2ccc3c(c2)cc2n3C(c3cnc(C4CCCC4)s3)Oc3cc(-c4cnc([C@@H]5CCCN5C(=O)[C@@H](NC(=O)OC)C(C)C)[nH]4)cc(F)c3-2)[nH]1)C1CCOC(C)(C)C1` (single isomer, unassigned) [Compound 111], the IC50 with HCV replicon 1AY93H (setting [4]) was determined as 0.005 nM; with HCV replicon 1A (Hepatitis C virus), 0.0022 nM; in the assay with HCV replicon 2B (setting [2]) it was 0.003 nM; with HCV replicon 1B (Hepatitis C virus) it was 0.002 nM.

Regarding `COC(=O)N[C@H](C(=O)N1CCC[C@H]1c1ncc(-c2cc(F)c3c(c2)OC(c2cnc(-c4ccc(OC)cc4)s2)n2c-3cc3cc(-c4cnc([C@@H]5CCCN5C(=O)[C@@H](NC(=O)OC)C(C)C)[nH]4)ccc32)[nH]1)C(C)C` (single isomer, unassigned) [Compound 46], the 50% inhibitory concentration (IC50) stood at 0.534 nM with HCV replicon 1AY93H (setting [3]); 0.0018 nM with HCV replicon 1A; 0.252 nM in the assay with HCV replicon 2B (read-out: 2B IC50, replicon 2B); 0.001 nM in the assay with HCV replicon 1B.

`COC(=O)N[C@H](C(=O)N1CCC[C@H]1c1ncc(-c2cc(F)c3c(c2)OC(c2csnn2)n2c-3cc3cc(-c4cnc([C@@H]5CCCN5C(=O)[C@@H](NC(=O)OC)C(C)C)[nH]4)ccc32)[nH]1)C(C)C` (mixture of isomers) [Compound 501]: the IC50 is 0.857 nM in the assay on HCV replicon 1AY93H (setting [4]), 0.0039 nM in the assay with HCV replicon 1A (Hepatitis C virus), 1.32 nM in the assay on HCV replicon 2B (setting [2]) and 0.0036 nM in the assay with HCV replicon 1B (Hepatitis C virus).

`COC(=O)N[C@H](C(=O)N1CCC[C@H]1c1ncc(-c2cc(F)c3c(c2)OC(c2nc4c(s2)CCC4)n2c-3cc3cc(-c4cnc([C@@H]5CCCN5C(=O)[C@@H](NC(=O)OC)C(C)C)[nH]4)ccc32)[nH]1)C(C)C` (single isomer, unassigned) [Compound 504]: the IC50 in the assay with HCV replicon 1AY93H (setting [3]) came out at 1.67 nM; in the assay on HCV replicon 1A (Hepatitis C virus), 0.0026 nM; in the assay with HCV replicon 2B (read-out: 2B IC50, replicon 2B) it was 1.67 nM; with HCV replicon 1B (Hepatitis C virus), 0.0024 nM.

Take `COC(=O)NC(C(=O)N1CCC[C@H]1c1ncc(-c2ccc3c(c2)cc2n3C(c3cnc(C(C)(C)O)s3)Oc3cc(-c4cnc([C@@H]5CCCN5C(=O)[C@@H](NC(=O)OC)C(C)C)[nH]4)cc(F)c3-2)[nH]1)C1C[C@@H](C)O[C@@H](C)C1` (single isomer, unassigned) [Compound 73]: the IC50 with HCV replicon 1AY93H (setting [3]) turned out to be 0.586 nM; with HCV replicon 1A (Hepatitis C virus), 0.0057 nM; in the assay with HCV replicon 2B (read-out: 2B IC50, replicon 2B) it was 0.146 nM; in the assay with HCV replicon 1B (Hepatitis C virus) it was 0.005 nM.

Turning to `COC(=O)N[C@H](C(=O)N1CCC[C@H]1c1nc(-c2cc(F)c3c(c2)OC(c2cnc(C4CCCCC4)s2)n2c-3cc3cc(-c4cnc([C@@H]5CCCN5C(=O)[C@@H](NC(=O)OC)C(C)C)[nH]4)ccc32)c[nH]1)C(C)C` (some centres unmarked) [Compound 415], the IC50 in the assay on HCV replicon 1AY93H (setting [4]) amounted to 2.88 nM; in the assay with HCV replicon 1A (Hepatitis C virus), 0.0016 nM; in the assay on HCV replicon 2B (setting [2]), 1.43 nM; in the assay with HCV replicon 1B (Hepatitis C virus) it was 0.002 nM.

Regarding `COC(=O)N[C@H](C(=O)N1CCC[C@H]1c1ncc(-c2cc(F)c3c(c2)OC(c2cnc(C(C)(C)C)s2)n2c-3cc3cc(-c4cnc([C@@H]5CCCN5C(=O)[C@@H](NC(=O)OC)C(C)C)[nH]4)ccc32)[nH]1)C(C)C` (single isomer, unassigned) [Compound 303], the IC50 in the assay with HCV replicon 1AY93H (setting [3]) stood at 0.0475 nM; in the assay with HCV replicon 1A, 0.0026 nM; with HCV replicon 2B (read-out: 2B IC50, replicon 2B) it was 0.942 nM; in the assay on HCV replicon 1B, 0.003 nM.

On to `COC(=O)N[C@H](C(=O)N1CCC[C@H]1c1ncc(-c2cc(F)c3c(c2)OC(c2cnc(Oc4ccc(F)cc4)s2)n2c-3cc3cc(-c4cnc([C@@H]5CCCN5C(=O)[C@@H](NC(=O)OC)C(C)C)[nH]4)ccc32)[nH]1)C(C)C` (single isomer, unassigned) [Compound 49], for which the IC50 in the assay with HCV replicon 1A (Hepatitis C virus) came out at 0.001 nM; with HCV replicon 2B (read-out: 2B IC50, replicon 2B), 0.002 nM; in the assay with HCV replicon 1B (Hepatitis C virus), 0.002 nM; in the assay with HCV replicon 1AQ30D (setting [1]) it was 0.029 nM.

Regarding `COC(=O)NC(C(=O)N1C(c2ncc(-c3cc(F)c4c(c3)OC(c3cnc(C5CC5)s3)n3c-4cc4cc(-c5cnc(C6CC7(C)CC7N6C(=O)C(NC(=O)OC)C(C)C)[nH]5)ccc43)[nH]2)CC2(C)CC12)C(C)C` (centres unmarked) [Compound 533], the IC50 amounted to 0.0262 nM with HCV replicon 1A; 0.0196 nM with HCV replicon 1B; 2.52 nM with HCV replicon 1AQ30D (replicon 1AQ30D, read-out: 1A Q30D IC50).

Consider `COC(=O)NC(C(=O)N1[C@@H]2C[C@@H]2C[C@H]1c1ncc(-c2ccc3c(c2)cc2n3C(c3cnc(C4CC4)s3)Oc3cc(-c4cnc([C@@H]5CCCN5C(=O)[C@@H](NC(=O)OC)C(C)C)[nH]4)cc(F)c3-2)[nH]1)C1CCOC(C)(C)C1` (single isomer, unassigned) [Compound 313], for which the half-maximal inhibitory concentration (IC50) in the assay with HCV replicon 1AY93H (setting [4]) worked out at 0.231 nM; in the assay on HCV replicon 1A (Hepatitis C virus), 0.0032 nM; with HCV replicon 2B (read-out: 2B IC50, replicon 2B), 0.122 nM; with HCV replicon 1B (Hepatitis C virus), 0.045 nM.
